How the values were obtained:
Experiment in all cases: relative viability (nuclei count vs DMSO), 5 days (fraction); higher = more cells survive
[1] = compound: CC(C)CCN1c2nc(Nc3cc(F)c(O)c(F)c3)ncc2N(C)C(=O)C1C [BI-D1870] + N=C(N)NC(=N)NCCc1ccccc1 [Phenformin] (partner 250 µM)
In short: (§1)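 Values are medians from duplicate plates. Each reflects relative viability, defined as the nuclei count of treated wells over that of vehicle wells. Lung cancer cell lines in 1536-well plates were pin-tool dosed one day after seeding with one drug alone or with a fixed anchor-drug dose plus five library-drug doses (not always all listed) in √10 steps, then fixed, stained and imaged at 4× after 5 days.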

[2] = compound: O=c1ncccn1[C@@H]1O[C@H](CO)[C@@H](O)[C@H]1O [Zebularine] + CC(C)C[C@H](NC(=O)[C@H](Cc1ccccc1)NC(=O)c1cnccn1)B(O)O [Bortezomib] (partner 0.002 µM)
In short: as §1

[3] = compound: O=c1ncccn1[C@@H]1O[C@H](CO)[C@@H](O)[C@H]1O [Zebularine] + CS(=O)(=O)CCNCc1ccc(-c2ccc3ncnc(Nc4ccc(OCc5cccc(F)c5)c(Cl)c4)c3c2)o1 [Lapatinib] (partner 2 µM)
In short: as §1

[4] = compound: CC(C)CCN1c2nc(Nc3cc(F)c(O)c(F)c3)ncc2N(C)C(=O)C1C [BI-D1870] + Cc1cc(Nc2cc(N3CCN(C)CC3)nc(Sc3ccc(NC(=O)C4CC4)cc3)n2)n[nH]1 [Tozasertib] (partner 0.1 µM)
In short: as §1

Cell Line	relative viability ([1]; first compound 0.04 µM)	relative viability ([1]; first compound 0.1265 µM)	relative viability ([1]; first compound 0.4 µM)	relative viability ([1]; first compound 1.265 µM)	relative viability ([1]; first compound 4 µM)	relative viability ([2]; first compound 1 µM)	relative viability ([2]; first compound 3.162 µM)	relative viability ([2]; first compound 10 µM)	relative viability ([2]; first compound 31.62 µM)	relative viability ([2]; first compound 100 µM)	relative viability ([3]; first compound 1 µM)	relative viability ([3]; first compound 3.162 µM)	relative viability ([3]; first compound 10 µM)	relative viability ([3]; first compound 31.62 µM)	relative viability ([3]; first compound 100 µM)	relative viability ([4]; first compound 0.04 µM)	relative viability ([4]; first compound 0.1265 µM)	relative viability ([4]; first compound 0.4 µM)	relative viability ([4]; first compound 1.265 µM)	relative viability ([4]; first compound 4 µM)
201T	0.457	0.47	0.421	0.487	0.428	1.13	1.1	1	1.15	1.11	1.05	1.09	0.902	1.06	1.11	0.993	0.905	0.935	0.955	0.936
A549	0.211	0.174	0.177	0.207	0.165						1.16	0.941	0.438	0.698	0.2					
A-427	0.41	0.308	0.306	0.379	0.347	1.12	0.899	0.665	0.381	0.247	1.13	1.01	0.691	0.58	0.256	0.202	0.213	0.21	0.238	0.221
ABC-1	0.215	0.211	0.264	0.218	0.212	0.295	0.248	0.249	0.275	0.349	1.05	1.08	0.655	0.642	0.605	0.171	0.155	0.15	0.197	0.197
BEN	0.272	0.29	0.273	0.314	0.243	0.938	0.714	0.345	0.372	0.265	0.661	0.491	0.347	0.311	0.22	0.557	0.618	0.438	0.548	0.605
CAL-12T	0.647	0.452	0.583	0.461	0.302	1.22	1.01		0.68	0.483	0.757	0.658		0.701	0.633	0.324	0.317	0.185	0.261	0.194
COR-L23	0.461	0.438	0.499	0.407	0.324	0.928	1.13	0.363	0.318	0.251	1.1	0.924	0.5	0.383	0.232	0.199	0.166	0.145	0.181	0.13
COR-L 105	0.562	0.396	0.422	0.489	0.5	0.978	0.771	0.694	1.21	0.843	0.388	0.367	0.362	0.361	0.364	0.416	0.319	0.343	0.341	0.33
Calu-6						1.04	0.85	0.914	0.77	0.306	1.17	0.99	0.604	0.813	0.347					
ChaGo-K-1	0.481	0.522	0.477	0.481	0.412	1.27	0.982	0.558	0.678	0.284						0.224	0.203	0.201	0.236	0.22
EBC-1						0.528	0.547	0.508	0.572	0.623	0.244	0.197		0.205	0.212					
EKVX	0.243	0.214	0.23	0.21	0.18	1.27	1.05		0.88	1.06	0.218	0.182		0.211	0.184	0.433	0.379	0.378	0.287	0.206
EMC-BAC-2	0.578	0.519	0.53	0.549	0.499	1.1	1.09	0.732	1.09	1.11	0.984	0.964	0.647	0.968	0.981	0.317	0.248	0.316	0.288	0.259
EPLC-272H	0.36	0.262	0.289	0.28	0.2	1			1.07	0.836	0.935			0.992	0.598	0.37	0.242	0.232	0.247	0.238
H3255	0.408	0.323	0.334	0.356	0.367	0.897	0.736	0.419	0.775	0.942	0.249	0.239	0.221	0.235	0.228	0.641	0.57	0.68	0.604	0.739
HARA	0.513	0.455	0.475	0.506	0.402	1.14	1.11		1.09	0.86	0.731	0.906		0.896	1.02	0.129	0.101	0.128	0.139	0.0974

From the supplement of paper PMC10307832
